Experimental data as given in US7390831B2, “Tetracyclic steroid derivatives useful as progesterone receptor modulators” (Janssen Pharmaceutica N.V., priority 2006, dated 2008).
Where two headings read alike, the source gives them in different places.

Experiments:
[1] = test system: A549 Human lung carcinoma cells; experiment: A549 Human Lung Cell Assay (transfected cells, dexamethasone challenge, luciferase read-out); assay type: cell-based; settings: Homo sapiens, A549, A549 cells, test compound 10 min then dexamethasone challenge, 24 h, Luc-assay; read-out: A 549 IC50
Method: A549Human Lung Cell Assay
A549Human lung carcinoma cells were grown in F-12K Nutrient Mixture containing 10% (v/v) fetal bovine serum (FBS; Invitrogen), 2 mM glutamine and 0.15% sodium dicarbonate (Invitrogen).
A549 cells were split 1 to 3 in 175 cm tissue culture flask. The cells were incubated at 37° C. in CO2 incubator until the cells were 95% confluent (typically 24-30 hours).
The following solutions were prepared in sterile tubes: (a) Solution A 1.5 μg/ml of DNA in 8.5 ml OPTI-MEM I Reduced Serum Medium. (GIBCO cat# 31985) and (b) Solution B: 6 μl/ml of DMRIE-C Reagent into […] OPTI-MEM I. The two solutions were combined and mixed gently, then incubated at room temperature for 40 minutes.
The A549 cells prepared above were washed with […] of OPTI-MEM I. The medium was removed and 17 ml of the lipid-DNA complex solution was overlayed onto cells. The cells ere then incubated for 16 h at 37° C. in CO2 incubator. The DNA-containing medium was removed and 30 ml of growth medium was added. (5% Charcoal treated FBS) After 5-6 h, the cells were seeded in a 96 well plate and the cells incubated overnight at 37° C. in CO2 incubator.
To each well was then added 5 μl of test compounds and the cells incubated at 37° C. for 10 min. 5 μL of dexamathasone (CAS [50-02-2]), was then added to each well for challenger and the cells incubated at 37° C. in CO2 incubator for 24 h. 100 μl of Luc-assay buffer was then added into each cell well and the cells incubated for 30 min at room temperature. A 150 μL sample from each well was then transferred into a DYNEX Microlitel plate and read on Top-counter.
(§1) Representative compounds of the present invention were tested according to the procedures described in Examples 45 and 46 above, with results as listed in Table 2 below.

[2] = test system: T47D human breast cancer cells; experiment: T47D Human Breast Cancer Cells Assay (alkaline phosphatase, luminescence); assay type: cell-based
Method: T47D Human Breast Cancer Cells Assay
T47D human breast cancer cells were grown in RPMI medium without phenol red (Invitrogen) containing 10% (v/v) heat-inactivated fetal bovine serum (FBS; Hyclone), 1% (v/v) penicillin-streptomycin (Invitrogen), 1% (w/v) glutamine (Invitrogen), and […] insulin (Sigma). Incubation conditions were 37° C. in a humidified 5% (v/v) carbon dioxide environment.
The cells were plated in 96-well tissue culture plates at 10,000 cells per well in assay medium [RPMI medium without phenol red (Invitrogen) containing 5% (v/v) charcoal-treated FBS (Hyclone) and 1% (v/v) penicillin-streptomycin (Invitrogen)]. Two days later, the medium was decanted and test compound or control were added at a final concentration of 0.1% (v/v) dimethyl sulfoxide in fresh assay medium. Twenty-four hours later, an alkaline phosphatase assay was performed using a SEAP kit (BD Biosciences Clontech, Palo Alto, Calif.). Briefly, the medium was decanted and the cells were fixed for 30 minutes at room temperature with 5% (v/v) formalin (Sigma). The cells were washed once with room temperature Hank's buffered saline solution (Invitrogen). Equal volumes (0.05 mL) of 1× Dilution Buffer, Assay Buffer and 1:20 substrate/enhancer mixture were then added. After 1 hour incubation at room temperature in the dark, the lysate was transferred to a white 96-well plate (Dynex) and luminescence was read using a LuminoSkan Ascent (Thermo Electron, Woburn, Mass.).
as §1

[3] = Homo sapiens, T47D, 24 h, read-out: T47D IC50 (nM), T47D cells, 24 h with test compound, alkaline phosphatase assay (SEAP kit)

| Compound | IC50 [1] [nM] | IC50 [2, 3] [nM] | IC50 ([2]; read-out: T47D IC50, T47D cells, 24 h with test compound, alkaline phosphatase assay (SEAP kit)) [nM] |
| --- | --- | --- | --- |
| COc1ccc([C@@H]2OC[C@@]3(C)C(CC[C@@]3(O)C#Cc3ccc(C(F)(F)F)cc3)C3CCC4=CC(=O)CCC4=C32)cc1 (some centres unmarked) [Compound 22, 1-Hydroxy-10-(4-methoxy-phenyl)-12a-methyl-1-(4-trifluoromethylphenylethynyl)-2,3,3a,3b,4,5,9,10,12,12a-decahydro-1H,8H-11-oxa-naphtho[2,1-e]azulen-7-one] | > 3000 | > 1000 |  |
| C=C(CCO)[C@]1(O)CCC2C3CCC4=CC(=O)CCC4=C3[C@@H](c3ccc(OC)cc3)OC[C@@]21C (some centres unmarked) [Compound 24] | 771 | 176 | 130 |
